The test system of one assay is HCT116 cells. In words: Growth inhibitory activity on HCT116 cell (CellTiter-Glo). In kind it is cell-based. To be noted: Homo sapiens, HCT-116, 72 h; test compound 1 μM, 3 days; read-out: HCT116 cell proliferation inhibitory rate (%) at 1 μM. The method, then: The growth inhibitory activity of the compound on HCT116 cell was evaluated by the following method.
HCT116 cells were seeded in a 384 well blackplate at 900 cells/[…]/well, and maintained in an assay medium (RPMI medium (Wako) containing 2% fetal bovine serum, 50 Unit/mL penicillin and […] streptomycin (Invitrogen)). The next day, a test compound dissolved in dimethyl sulfoxide (DMSO) was diluted with the assay medium, and the obtained compound solution was added by […] to each well of a plate containing HCT116 cells, and incubated at 37° C., 5% CO2 (test compound addition group).
A similar reaction was performed without adding a test compound (test compound non-addition group).
Furthermore, a similar reaction was performed under the conditions without adding HCT116 cell and a test compound (control group).
After 3 days, […] of a CellTiter-Glo reagent (Promega KK) was added to the well, and the mixture was stirred for 10 min. Thereafter, the luminescence value of each well was measured by the EnVision™ multilabel counter (Perkin Elmer Inc.).
The HCT116 cell proliferation inhibitory rate (%) of the test compound was determined by the following calculation formula. (1−(luminescence of test compound addition group−luminescence of control group)÷(luminescence of test compound non-addition group−luminescence of control group))×100
The HCT116 cell proliferation inhibitory rates (%) of the test compound (1 μM) are shown below.
On the technique in general: ATP-based viability assays read luminescence as a measure of living cells.

Assay [1] relates to collagen I gene expression level in liver. Put plainly: Inhibitory effect on liver fibrosis caused by NASH (collagen I gene expression level in liver). To be noted: homo low-density lipoprotein receptor deficient mouse, choline-deficient amino acid diet, oral once per day for three weeks. In kind it is in vivo. The protocol:
The action on liver fibrosis caused by non-alcoholic steatohepatitis (NASH) was verified by the following method.
For efficacy evaluation of action on the above-mentioned fibrosis, 9-week-old, male, homo low-density lipoprotein receptor deficient mouse (Jackson Laboratories (Bar Harbor Me., USA)) was used. Specifically, a choline-deficient amino acid diet (A08111307, Research Diets, New Brunswick, N.J., USA) was fed to the above-mentioned mouse for one week, and a drug was administered for three weeks, and then the collagen I gene expression level in liver after the drug administration was measured.
(§1) For the above-mentioned drug administration group, the test compound suspended in 0.5% methylcellulose solution was orally administered by gavage using a stomach gavage needle once per day (n=8). […]
The measurement of the collagen I gene expression level in liver was performed by the following method. […] The total RNA was purified using RNeasy Mini Kit (Qiagen, Valencia, Calif., USA), and cDNA was prepared using High Capacity cDNA Reverse Transcription Kit (PN4368814, Applied Biosystems, Foster City, Calif., USA), and the collagen I gene expression level was measured (collagen type I alpha 1, Part Number 4351370, Applied Biosystems) by the quantitative PCR method (TaqMan Gene Expression Master Mix, PN4369016, Applied Biosystems). […]

The nature of assay [2]: Anti-fatty liver effect (triglyceride amount in liver). The format is in vivo. To be noted: homo low-density lipoprotein receptor deficient mouse, choline-deficient amino acid diet, oral once per day for three weeks.
Description: As representative examples of anti-fatty liver effect, the action on fatty liver caused by non-alcoholic steatohepatitis was verified by the following method.
For efficacy evaluation of action on the above-mentioned fibrosis, 9-week-old, male, homo low-density lipoprotein receptor deficient mouse (Jackson Laboratories (Bar Harbor Me., USA)) was used. Specifically, a choline-deficient amino acid diet (A08111307, Research Diets, New Brunswick, N.J., USA) was fed to the above-mentioned mouse for one week, and a drug was administered for three weeks, and then the triglyceride amount in liver after the drug administration was measured.
as §1
The measurement of the triglyceride amount in liver was performed by the following method. […] The total weight of the isolated liver was measured, and a part of the liver was immediately cryopreserved using dry ice. […] The dried substance was dissolved in 2-propanol, and the triglyceride concentration in the solution was measured by autoanalyzer (Hitachi 7180 type). The total triglyceride amount in the liver (mg/liver) was calculated from the weight of the liver used for the measurement and the total liver weight. […]

With `C[C@@H](COc1cnc(-c2ccc(Oc3cccc(OCC4CC4)c3)cc2)o1)NC(N)=O` [Example 82, 1-((2S)-1-((2-(4-(3-(cyclopropylmethoxy)phenoxy)phenyl)-1,3-oxazol-5-yl)oxy)propan-2-yl)urea], the inhibition at 1 µM in the assay with HCT116 cells was found to be 33%. Besides, the “inhibitory effect on liver fibrosis caused by non-alcoholic steatohepatitis (collagen I gene expression level in liver, FIG. 1)” value in assay [1] is listed as “superior inhibitory effect on liver fibrosis caused by non-alcoholic steatohepatitis”. Besides, in assay [2], the “inhibitory effect on fatty liver caused by non-alcoholic steatohepatitis (triglyceride amount in liver, FIG. 2)” value is “superior inhibitory effect on fatty liver caused by non-alcoholic steatohepatitis”.

The record behind these values is patent publication US10252997B2, “Monocyclic compound” (Takeda Pharmaceutical Company Limited, priority 2015, dated 2019).
